Series [1] concerns the target T1, hyaluronidase taken from bovine testicles (Bos taurus, UniProt Q2YDK3).
T1 construct: purchased Sigma Co; host or cells: bovine testicles
T1 sequence (Q2YDK3 36-553): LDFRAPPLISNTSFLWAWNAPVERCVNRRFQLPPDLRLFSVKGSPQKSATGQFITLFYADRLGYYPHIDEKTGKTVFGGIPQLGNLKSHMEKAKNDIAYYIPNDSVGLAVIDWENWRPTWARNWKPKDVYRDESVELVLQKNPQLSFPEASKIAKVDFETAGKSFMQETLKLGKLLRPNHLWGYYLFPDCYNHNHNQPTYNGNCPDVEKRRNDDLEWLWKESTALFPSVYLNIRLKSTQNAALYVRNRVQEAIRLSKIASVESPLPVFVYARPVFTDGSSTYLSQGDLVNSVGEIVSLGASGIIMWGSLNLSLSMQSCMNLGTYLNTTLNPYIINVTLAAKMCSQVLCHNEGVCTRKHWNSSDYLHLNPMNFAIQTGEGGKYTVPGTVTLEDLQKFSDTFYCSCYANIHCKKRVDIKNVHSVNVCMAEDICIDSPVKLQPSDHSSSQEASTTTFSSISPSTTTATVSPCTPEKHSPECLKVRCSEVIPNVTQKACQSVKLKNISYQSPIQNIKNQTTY
Briefly: Effect on hyaluronidase activity. The class given is biochemical. The following applies: concentration range 0.01-0.3 mM; bovine testicular hyaluronidase, pH 3.5. On the procedure:
0.8 mg/ml of a hyaluronidase (a product of Sigma Co.) taken from bovine testicles was used as an enzyme. Test compounds (compound Nos. 1, 2, 4, 7, 8, 9 and 13) were dissolved at various concentrations in a 1 M acetate buffer (pH 3.5) and heated at 37° C. for 20 minutes. Then, calcium chloride was added to each of the resulting solutions so that the calcium chloride concentration became 5 mM, and each of the resulting mixtures was heated at 37° C. for 20 minutes.
Thereto was added potassium hyaluronate so that its concentration in the buffer became 2.4 mg/ml, and the mixture was heated at 37° C. for 40 minutes.
After the termination of the reaction, the amount of the substrate hydrolyzed was determined at 585 nm using the Elson-Morgan's procedure, from which there were determined the effects of each test compound at various concentrations on the normal enzymatic reaction.

For series [2], the system named is rat gastric mucosa. The class given is in vivo. The following applies: 50 mg/kg p.o. On the procedure: The compound No. 1 of the present invention and two known cyclooxygenase inhibitors, i.e. Indometacin and Piroxicam were examined for action on rat gastric mucosa. That is, the compound No. 1, Indometacin or Piroxicam was administered orally to male SD rats (body weight: 200-250 g) which had been fasted for 24 hours. After the administration, the rats were allowed to no food and no water for 48 hours. Then, the stomach of each rat was removed under ether anesthesia and fixed with formalin. The resulting stomach was incised and the length of the mucous ulcer generated in the glandular portion of the stomach was measured using a dissecting microscope (magnification of 10).

Series [3] relates to rat plantar edema induced by carrageenin. In words: Action against rat plantar edema induced by carrageenin. Format: in vivo. On the procedure:
Male Sprague-Dawley rats weighing 200-250 g were injected s.c. (subcutaneously) with 0.1 ml of carrageenin into the subplantar region of the right hind paw. 60 minutes before the carrageenin administration, a test compound (compound No. 1) had been administered p.o. (orally). […] Thus, the anti-inflammatory effect of the compound of the present invention was proven in this animal test.

The subject of series [4] is rat peritoneal mast cells. Briefly: Histamine liberation from rat peritoneal mast cells by concanavalin A. Format: cell-based. The following applies: Mast cell, test compound 0.2 mM, phosphatidylserine 3.0 μg/ml. How it is done:
This test was effected in accordance with the method of R. P. Siraganian [J. Immunol., 114, 886 (1974)]. That is, a Locke solution containing phosphatidylserine, a test compound and a suspension of rat peritoneal mast cells was heated for 20 minutes at 37° C. Incidentally, the concentrations of phosphatidylserine and the test compound in the Locke solution were 3.0 μg/ml and 0.2 mM, respectively. A concanavalin A solution was added to the Locke solution, and the mixture was subjected to a reaction for 10 minutes at 37° C. After ice-cooling, the reaction mixture was subjected to centrifugation for 10 minutes at 4° C. Both the supernatant and the precipitate were measured for histamine content by the method of Shore et al. [J. Exp. Ther., 127, 182 (1959)] to determine a ratio of histamine liberated.

Series [5] deals with rat 48-hour homologous PCA reaction. Briefly: Rat 48-hour homologous PCA reaction. Format: in vivo. The following applies: 200 mg/kg p.o. 60 minutes before antigen; for Amount of colorant which leaked out: control 9.7 ± 1.9. On the procedure:
Male SD rats weighing 200-250 g were injected with 0.1 ml of a rat anti-egg albumin serum diluted with a physiological saline solution, intradermally at the back in order to passively sensitize the rats. After 48 hours, 0.5 ml of 1% Evans Blue containing 5 mg of antigen (egg albumin) was administered intravenously. After 30 minutes, each rat was sacrificed by bleeding and the skin was peeled off. Then, the amount of the coloring material in the lesion was determined by the method of Katayama et al. [Microbial. Immunol., 122 (2), 89 (1987)]. Incidentally, each test compound had been administered orally 60 minutes before the antigen administration.

Series [6] concerns male ddy mice. Briefly: Acute toxicity by intravenous injection. Format: in vivo. The following applies: 10-500 mg/kg, 10 mice per group. On the procedure: The compound of the present invention was further tested for acute toxicity by intravenous injection using male ddy mice. There was no death when the compound No. 1 of the present invention was administered in an amount of 10-500 mg/kg (each group consisted of 10 mice).

Series [7] has as its target T1, hyaluronidase taken from bovine testicles. Conditions: Chem. Pharm. Bull., 33 (9), 3738 (1985), read-out: "50% enzyme inhibition" concentration; cited from earlier work.
Series [8] has as its system rat peritoneal mast cells. Conditions: 0.3 mM; concanavalin A; Chem. Pharm. Bull., 33 (9), 3738 (1985); cited from earlier work.

The values that follow come from patent US5004742A, “Benzothiazine-1,1-dioxide derivatives” (Nippon Hypox Laboratories Incorporated, priority 1989, dated 1991).

`CN1C(C(=O)Nc2ccccc2)=C(O)c2ccccc2S1(=O)=O` [4-hydroxy-2-methyl-N-(phenyl)-2H-1,2-benzothiazine-3-carboxamido-1,1-dioxide]: the “effect on hyaluronidase activity” value in series [1] is reported as “no effect”.
As to `COc1ccc2c(c1)c(CC(=O)O)c(C)n2C(=O)c1ccc(Cl)cc1` [Indometacin], in series [2], the “ulcer formation, in words” value was “very serious ulcer”. For the same compound, in series [2] (rats fasted 24 hours, 48 hours after administration), the “Ulcer index mean S.E.” value is reported as 42.8 ± 8.7.
As for `CN1C(C(=O)Nc2ccccc2-c2nn[nH]n2)=C(O)c2ccccc2S1(=O)=O` [No. 1, 4-hydroxy-2-methyl-N-[2'-(tetrazo-5"-yl)phenyl]-2H-1,2-benzothiazine-3-carboxamido-1,1-dioxide], the swelling percent in series [3] (200 mg/kg p.o. 60 min before carrageenin, 30 minutes after carrageenin administration, control 18.2%) was 8.0%. Besides, the “inhibition (%) of edema, in words” value in series [3] (200 mg/kg p.o., 1, 1.5, 2 and 3 hours after carrageenin administration) was “About the same inhibition”. In series [3] (200 mg/kg p.o., 30 minutes after carrageenin administration), this compound yielded an inhibition of edema of 54%. The inhibition at 200 µM in series [4] turned out to be 93.9%. In addition, in series [5], the “Suppression (%)” value is reported as 65.1% and the “Amount of colorant which leaked out” value amounted to 3.4 ± 1.3 μg/site. For the same compound, the “death in acute toxicity test” value in series [6] is given as “no death”.
On to `CN1C(C(=O)Nc2ccccc2C(=O)O)=C(O)c2ccccc2S1(=O)=O` [No. 2, 4-Hydroxy-2-methyl-N-(2'-carboxyphenyl)-2H-1,2-benzothiazine-3-carboxamido-1,1-dioxide], for which, in series [4], the inhibition at 200 µM came to 81.3%. In addition, in series [5], the “Suppression (%)” value stood at 29.3% and the “Amount of colorant which leaked out” value turned out to be 6.8 ± 2.3 μg/site.
For the compound `CN1C(C(=O)Nc2ccc(Cl)cc2C(=O)O)=C(O)c2ccccc2S1(=O)=O` [No. 3, 4-Hydroxy-2-methyl-N-(2'-carboxy-4'-chlorophenyl)-2H-1,2-benzothiazine-3-carboxamido-1,1-dioxide], in series [4], the inhibition at 200 µM is 65%.
As for `CN1C(C(=O)Nc2cc(Cl)ccc2C(=O)O)=C(O)c2ccccc2S1(=O)=O` [No. 4, 4-Hydroxy-2-methyl-N-(2'-carboxy-5'-chlorophenyl)-2H-1,2-benzothiazine-3-carboxamido-1,1-dioxide], in series [4], the inhibition at 200 µM is 85.1%.
For the compound `Cc1cccc(NC(=O)C2=C(O)c3ccccc3S(=O)(=O)N2C)c1C(=O)O` [No. 5, 4-Hydroxy-2-methyl-N-(2'-carboxy-3'-methylphenyl)-2H-1,2-benzothiazine-3-carboxamido-1,1-dioxide], the inhibition at 200 µM in series [4] came out at 85.2%.
The same measure, in the same setting: then `Cc1ccc(NC(=O)C2=C(O)c3ccccc3S(=O)(=O)N2C)c(C(=O)O)c1` [No. 6, 4-Hydroxy-2-methyl-N-(2'-carboxy-4'-methylphenyl)-2H-1,2-benzothiazine-3-carboxamido-1,1-dioxide], with 63%; and `CN1C(C(=O)Nc2ccc(O)cc2C(=O)O)=C(O)c2ccccc2S1(=O)=O` [No. 7, 4-Hydroxy-2-methyl-N-(2'-carboxy-4'-hydroxyphenyl)-2H-1,2-benzothiazine-3-carboxamido-1,1-dioxide], with 86%.
Consider `CN1C(C(=O)Nc2c(O)cccc2C(=O)O)=C(O)c2ccccc2S1(=O)=O` [No. 8, 4-Hydroxy-2-methyl-N-(2'-carboxy-6'-hydroxyphenyl)-2H-1,2-benzothiazine-3-carboxamido-1,1-dioxide], for which the inhibition at 200 µM in series [4] is 83.7%.
For `CN1C(C(=O)Nc2cc([N+](=O)[O-])ccc2C(=O)O)=C(O)c2ccccc2S1(=O)=O` [No. 9, 4-Hydroxy-2-methyl-N-(2'-carboxy-5'-nitrophenyl)-2H-1,2-benzothiazine-3-carboxamido-1,1-dioxide], the inhibition at 200 µM in series [4] is 106%.
With `CN1C(C(=O)Nc2cccc(C(=O)O)c2)=C(O)c2ccccc2S1(=O)=O` [No. 10, 4-Hydroxy-2-methyl-N-(3'-carboxyphenyl)-2H-1,2-benzothiazine-3-carboxamido-1,1-dioxide], the inhibition at 200 µM in series [4] is 90.7%.
Still for that read-out and setting: then `CN1C(C(=O)Nc2ccc(C(=O)O)cc2)=C(O)c2ccccc2S1(=O)=O` [No. 11, 4-Hydroxy-2-methyl-N-(4'-carboxyphenyl)-2H-1,2-benzothiazine-3-carboxamido-1,1-dioxide], with 60.3%.
For `CN1C(C(=O)Nc2ccccn2)=C(O)c2ccccc2S1(=O)=O` [Piroxicam], the “effect on hyaluronidase activity” value in series [1] is reported as “no effect”.
Regarding `COc1ccc(/C=C/C(=O)Nc2ccccc2C(=O)O)cc1OC` [Tranilast], the IC50 in series [7] is about 230 µM. In addition, the “inhibition of histamine liberation” value in series [8] is given as “about 20%”.
